Patent US20230009626A1 (ICHNOS SCIENCES S.A., priority 2018, published 2023)

Biological target: HPK1 (MAP4K1) (Homo sapiens, UniProt Q92918)
Assay: FRET Assay for HPK1 (MAP4K1): one step binding assay, displacement of labeled tracer
Settings: for inhibition at 1 µM: 1 μM compound; for inhibition at 1 µM / inhibition at 10 µM: FRET ratio 665/620, percent of control; for inhibition at 10 µM: 10 μM compound; for IC50: dose response curve, nonlinear regression
In short: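 TR-FRET tracer-displacement binding assay. GST-tagged HPK1 (10 nM) and Eu-anti-GST antibody (4 nM) were pre-incubated with compound on ice for 15 min in 50 mM HEPES pH 7.5, 10 mM MgCl2, 1 mM EGTA, 0.01% Brij-35 (3% DMSO final). Kinase Tracer 222 (20 nM) was then added for 1 h at room temperature. IC50 came from nonlinear regression of percent of control; percent inhibition was also given at 1.0 and 10.0 μM.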

HPK1 (MAP4K1), sequence (Q92918 whole entry): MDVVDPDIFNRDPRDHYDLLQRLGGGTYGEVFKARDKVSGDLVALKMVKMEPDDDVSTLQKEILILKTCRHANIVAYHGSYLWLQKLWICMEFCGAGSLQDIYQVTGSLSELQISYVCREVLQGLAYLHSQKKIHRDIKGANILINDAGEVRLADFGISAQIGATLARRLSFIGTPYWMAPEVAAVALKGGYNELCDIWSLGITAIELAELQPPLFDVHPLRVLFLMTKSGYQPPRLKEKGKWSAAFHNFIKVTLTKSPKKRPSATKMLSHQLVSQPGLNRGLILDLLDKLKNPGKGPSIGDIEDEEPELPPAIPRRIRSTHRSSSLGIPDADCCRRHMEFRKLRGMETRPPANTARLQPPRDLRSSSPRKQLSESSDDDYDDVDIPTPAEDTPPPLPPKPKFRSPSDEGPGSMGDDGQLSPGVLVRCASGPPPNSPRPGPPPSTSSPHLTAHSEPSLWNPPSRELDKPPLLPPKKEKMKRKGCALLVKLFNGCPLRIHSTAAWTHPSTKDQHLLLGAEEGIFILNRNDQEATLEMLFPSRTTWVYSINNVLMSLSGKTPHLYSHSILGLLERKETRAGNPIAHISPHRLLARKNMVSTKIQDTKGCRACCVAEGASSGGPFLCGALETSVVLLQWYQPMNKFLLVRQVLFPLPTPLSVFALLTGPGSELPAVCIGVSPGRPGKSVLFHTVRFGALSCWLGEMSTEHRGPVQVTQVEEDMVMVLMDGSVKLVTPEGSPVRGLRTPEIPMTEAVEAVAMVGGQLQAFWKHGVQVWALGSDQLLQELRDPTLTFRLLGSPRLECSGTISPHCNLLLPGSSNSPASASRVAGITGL

Structure (SMILES) | inhibition at 1 µM [%] | inhibition at 10 µM [%] | IC50 [nM]
C/C(Nc1cnn(C(C)(C)C#N)c1)=C1/C(=O)Nc2ccc(-c3cnccc3C)nc21 [Example 105, (Z)-2-Methyl-2-(4-((1-(5-(4-methylpyridin-3-yl)-2-oxo-1H-pyrrolo[3,2-b]pyridin-3(2H)-ylidene)ethyl)amino)-1H-pyrazol-1-yl)propanenitrile] | 79.8 | 84.4 | < 50
C/C(Nc1ccn(C(C)(C)C#N)n1)=C1/C(=O)Nc2cnc(-c3cncc(N)c3C)cc21 [Example 106, (Z)-2-(3-((1-(5-(5-Amino-4-methylpyridin-3-yl)-2-oxo-1H-pyrrolo[2,3-c]pyridin-3(2H)-ylidene)ethyl)amino)-1H-pyrazol-1-yl)-2-methylpropanenitrile] | 80 | 92.4 | < 50
COc1cccc(F)c1-c1cc2c(cn1)NC(=O)/C2=C(/C)Nc1ccc(N2CCNCC2)cc1 [Example 108, (Z)-5-(2-Fluoro-6-methoxyphenyl)-3-(1-((4-(piperazin-1-yl)phenyl)amino)ethylidene)-1H-pyrrolo[2,3-c]pyridin-2(3H)-one] | 74.2 | 77 | < 50
COc1cccc(F)c1-c1cc2c(cn1)NC(=O)/C2=C(/C)Nc1ccc(N(C)C)nc1 [Example 117, (Z)-3-(1-((6-(Dimethylamino)pyridin-3-yl)amino)ethylidene)-5-(2-fluoro-6-methoxyphenyl)-1H-pyrrolo[2,3-c]pyridin-2(3H)-one] | 54.8 | 56.4 | 
C/C(Nc1ccn(C)n1)=C1/C(=O)Nc2cnc(-c3c(C)cccc3F)cc21 [Example 121, (Z)-5-(2-Fluoro-6-methylphenyl)-3-(1-((1-methyl-1H-pyrazol-3-yl)amino)ethylidene)-1H-pyrrolo[2,3-c]pyridin-2(3H)-one] | 78.9 | 85.7 | < 50
COc1cccc(F)c1-c1cc2c(cn1)NC(=O)/C2=C(/C)Nc1ccc(N2CCNCC2)cn1 [Example 124, (Z)-5-(2-Fluoro-6-methoxyphenyl)-3-(1-((5-(piperazin-1-yl)pyridin-2-yl)amino)ethylidene)-1H-pyrrolo[2,3-c]pyridin-2(3H)-one] | 79.6 | 89.7 | < 50
COc1cccc(F)c1-c1cc2c(cn1)NC(=O)/C2=C(/C)Nc1ccc(N2CCNCC2)nc1 [Example 125, (Z)-5-(2-Fluoro-6-methoxyphenyl)-3-(1-((6-(piperazin-1-yl)pyridin-3-yl)amino)ethylidene)-1H-pyrrolo[2,3-c]pyridin-2(3H)-one] | 77.7 | 84.2 | < 50
C/C(Nc1cc2n(n1)CC(=O)N(C)C2)=C1/C(=O)Nc2cnc(-c3cnccc3C)cc21 [Example 126, (Z)-5-Methyl-2-((1-(5-(4-methylpyridin-3-yl)-2-oxo-1H-pyrrolo[2,3-c]pyridin-3(2H)-ylidene)ethyl)amino)-4,5-dihydropyrazolo[1,5-a]pyrazin-6(7H)-one] | 82.4 |  | < 50

Second part, the compound after the results:

inhibition at 1 µM [%] | inhibition at 10 µM [%] | IC50 [nM] | Structure (SMILES)
74.5 | 83.4 | < 50 | C/C(Nc1ccn(CC2CC2)n1)=C1/C(=O)Nc2cnc(-c3cnccc3C)cc21 [Example 103, (Z)-3-(1-((1-(Cyclopropylmethyl)-1H-pyrazol-3-yl)amino)ethylidene)-5-(4-methylpyridin-3-yl)-1H-pyrrolo[2,3-c]pyridin-2(3H)-one]
74.6 | 79.8 | < 50 | C/C(Nc1ccn(CC(C)(C)O)n1)=C1/C(=O)Nc2cnc(-c3cnccc3C)cc21 [Example 104, (Z)-3-(1-((1-(2-Hydroxy-2-methylpropyl)-1H-pyrazol-3-yl)amino)ethylidene)-5-(4-methylpyridin-3-yl)-1H-pyrrolo[2,3-c]pyridin-2(3H)-one]
72.3 | 80 | < 50 | C/C(Nc1ccc(N2CCOCC2)cn1)=C1/C(=O)Nc2cnc(-c3cnccc3C)cc21 [Example 107, (Z)-5-(4-Methylpyridin-3-yl)-3-(1-((5-morpholinopyridin-2-yl)amino)ethylidene)-1H-pyrrolo[2,3-c]pyridin-2(3H)-one]
72.4 | 83.4 | < 50 | C/C(Nc1ccc(N(C)C)nc1)=C1/C(=O)Nc2cnc(-c3cnccc3C)cc21 [Example 109, (Z)-3-(1-((6-(Dimethylamino)pyridin-3-yl)amino)ethylidene)-5-(4-methylpyridin-3-yl)-1H-pyrrolo[2,3-c]pyridin-2(3H)-one]
74.4 | 74.3 | < 50 | C/C(Nc1ccn(CCC(C)(C)O)n1)=C1/C(=O)Nc2cnc(-c3cnccc3C)cc21 [Example 111]
73.3 | 75.9 | < 50 | CNC(=O)Cn1ccc(N/C(C)=C2\C(=O)Nc3cnc(-c4cnccc4C)cc32)n1 [Example 114]
78.4 | 83.3 | < 50 | CNC(=O)C(C)(C)n1ccc(N/C(C)=C2\C(=O)Nc3cnc(-c4cnccc4C)cc32)n1 [Example 118, (Z)-N,2-dimethyl-2-(3-((1-(5-(4-methylpyridin-3-yl)-2-oxo-1H-pyrrolo[2,3-c]pyridin-3(2H)-ylidene)ethyl)amino)-1H-pyrazol-1-yl)propanamide]
52.6 | 67 | > 500 | C/C(Nc1c(C)nn(C)c1C)=C1/C(=O)Nc2cnc(-c3cnccc3C)cc21 [Example 119, (Z)-5-(4-Methylpyridin-3-yl)-3-(1-((1,3,5-trimethyl-1H-pyrazol-4-yl)amino)ethylidene)-1H-pyrrolo[2,3-c]pyridin-2(3H)-one]
2.17 | 49 |  | CC(=O)N1CC(n2ccc(N/C(C)=C3\C(=O)Nc4cnc(-c5cnccc5C)cc43)n2)C1 [Example 120, (Z)-3-(1-((1-(1-Acetylazetidin-3-yl)-1H-pyrazol-3-yl)amino)ethylidene)-5-(4-methylpyridin-3-yl)-1H-pyrrolo[2,3-c]pyridin-2(3H)-one]
87.3 | 92.6 | < 50 | C/C(Nc1cc[nH]n1)=C1/C(=O)Nc2cnc(-c3cnccc3C)cc21 [Example 122, (Z)-3-(1-((1H-Pyrazol-3-yl)amino)ethylidene)-5-(4-methylpyridin-3-yl)-1H-pyrrolo[2,3-c]pyridin-2(3H)-one]
81.8 | 88.2 | < 50 | C/C(Nc1ccc(C)nc1)=C1/C(=O)Nc2cnc(-c3cnccc3C)cc21 [Example 123, (Z)-5-(4-Methylpyridin-3-yl)-3-(1-((6-methylpyridin-3-yl)amino)ethylidene)-1H-pyrrolo[2,3-c]pyridin-2(3H)-one]
75.1 | 81.5 | < 50 | C/C(Nc1cc2n(n1)CCN(C)C2=O)=C1/C(=O)Nc2cnc(-c3cnccc3C)cc21 [Example 127, (Z)-5-Methyl-2-((1-(5-(4-methylpyridin-3-yl)-2-oxo-1H-pyrrolo[2,3-c]pyridin-3(2H)-ylidene)ethyl)amino)-6,7-dihydropyrazolo[1,5-a]pyrazin-4(5H)-onc]
